Laboratory results as given in US20100267561A1, “HERBICIDAL PYRIDAZINONE DERIVATIVES” (priority 2007, published 2010).
Where two headings read alike, the source gives them in different places.

Tests used:
Type in all cases: in vivo
[1] = test system: barnyardgrass (Echinochloa crus-galli); experiment: Test A pre-/postemergence plant response; details: for pest or weed control at 1000 g/ha: Echinochloa crus-galli, 240 h, 1000 g ai/ha, read-out: Plant response rating, Barnyardgrass
Outline: (§1)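 Soil: loam blended with sand. Formulation: non-phytotoxic solvent mixture plus surfactant, applied as preemergence directed soil spray and as postemergence spray. Scoring: visual, 0 no effect to 100 complete control, roughly 10 days post-treatment in greenhouse.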

corn (Zea mays) = experiment: Test A pre-/postemergence plant response; details: for Corn plant response rating (crop injury, 0 = no effect, 100 = complete kill) at 1000 g/ha: Zea mays, 240 h, 1000 g ai/ha
Outline: as §1

[2] = test system: giant foxtail (Setaria faberi); experiment: Test A pre-/postemergence plant response; details: for pest or weed control at 1000 g/ha: Setaria faberi, 240 h, 1000 g ai/ha, read-out: Plant response rating, Foxtail, Giant
Outline: as §1

[3] = test system: large crabgrass (Digitaria sanguinalis); experiment: Test A pre-/postemergence plant response; details: for pest or weed control at 1000 g/ha: Digitaria sanguinalis, 240 h, 1000 g ai/ha, read-out: Plant response rating, Crabgrass, Large
Outline: as §1

[4] = test system: morningglory (Ipomoea coccinea); experiment: Test A pre-/postemergence plant response
Outline: as §1

[5] = test system: pigweed (Amaranthus retroflexus); experiment: Test A pre-/postemergence plant response; details: for pest or weed control at 1000 g/ha: Amaranthus retroflexus, 240 h, 1000 g ai/ha, read-out: Plant response rating, Pigweed
Outline: as §1

[6] = test system: velvetleaf (Abutilon theophrasti); experiment: Test A pre-/postemergence plant response
Outline: as §1

[7] = test system: wheat (Triticum aestivum); experiment: Test A pre-/postemergence plant response; details: for plant injury at 1000 g/ha: Triticum aestivum, 240 h, 1000 g ai/ha, read-out: Plant response rating, Wheat
Outline: as §1

[8] = test system: blackgrass (Alopecurus myosuroides); experiment: Test B pre-/postemergence plant response; details: for pest or weed control at 125 g/ha: 125 g ai/ha
Outline: (§2)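 Visual scoring from 0 (no effect) to 100 (complete control) against untreated controls was done 13 to 15 days after greenhouse treatment. Chemicals were formulated in a surfactant-containing non-phytotoxic solvent and applied to soil preemergence or to 1- to 4-leaf (2-18 cm) plants postemergence.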

[9] = test system: catchweed bedstraw (Galium aparine); experiment: Test B pre-/postemergence plant response; details: Preemergence
Outline: as §2

[10] = test system: yellow nutsedge (Cyperus esculentus); experiment: Test B pre-/postemergence plant response; details: for pest or weed control at 250 g/ha: 250 g ai/ha
Outline: as §2

[11] = post-emergence, Postemergence, 0 to 100 scale, 0 no effect, 100 complete control
[12] = pre-emergence, Preemergence, 0 to 100 scale (0 no effect, 100 complete control)
[13] = Postemergence, 1000 g ai/ha, 0 to 100 scale, 0 no effect, 100 complete control
[14] = Preemergence, 1000 g ai/ha, 0 to 100 scale (0 no effect, 100 complete control)
[15] = Postemergence, 31 g ai/ha, 0 to 100 scale (0 no effect, 100 complete control)
[16] = Postemergence, 125 g ai/ha, 0 to 100 scale, 0 no effect, 100 complete control
[17] = Preemergence, 31 g ai/ha, 0 to 100 scale, 0 is no effect, 100 is complete control
[18] = Preemergence, 125 g ai/ha, 0 to 100 scale (0 no effect, 100 complete control)
[19] = Preemergence, 31 g ai/ha, scale 0 to 100 (0 no effect, 100 complete control)
[20] = Preemergence, 62 g ai/ha, 0 to 100 scale, 0 no effect, 100 complete control
[21] = Preemergence, 8 g ai/ha, scale 0 to 100

Cc1cc(-c2ccc(C(F)(F)F)cc2)nn1-c1c(O)cnn(C)c1=O [Compound 1, 5-hydroxy-2-methyl-4-[5-methyl-3-[4-(trifluoromethyl)phenyl]-1H-pyrazol-1-yl]-3(2H)-pyridazinone]
0%: pest or weed control at 31 g/ha ([9]; Galium aparine, pre-emergence, 31 g ai/ha, 0 to 100 scale, 0 no effect, 100 complete control, read-out: Plant response rating, Galium) | pest or weed control at 62 g/ha ([9]; Galium aparine, pre-emergence, 62 g ai/ha, scale 0 to 100, read-out: Plant response rating, Galium) | pest or weed control at 125 g/ha ([9]; Galium aparine, pre-emergence, 125 g ai/ha, scale 0 to 100, read-out: Plant response rating, Galium) | pest or weed control at 250 g/ha ([9]; Galium aparine, pre-emergence, 250 g ai/ha, scale 0 to 100, read-out: Plant response rating, Galium) | pest or weed control at 31 g/ha ([10]; Cyperus, post-emergence, Postemergence, 31 g ai/ha, scale 0 to 100, 0 no effect, 100 complete control, read-out: Plant response rating, Nutsedge, Yellow) | pest or weed control at 62 g/ha ([10]; Cyperus, post-emergence, Postemergence, 62 g ai/ha, scale 0 to 100, read-out: Plant response rating, Nutsedge, Yellow) | pest or weed control at 125 g/ha ([10]; Cyperus, post-emergence, Postemergence, 125 g ai/ha, scale 0 to 100, read-out: Plant response rating, Nutsedge, Yellow) | pest or weed control at 250 g/ha ([10]; Cyperus, post-emergence, Postemergence, scale 0 to 100, read-out: Plant response rating, Nutsedge, Yellow) | pest or weed control at 31 g/ha ([10]; Cyperus, pre-emergence, Preemergence, 31 g ai/ha, 0 to 100 scale, 0 no effect, 100 complete control, read-out: Plant response rating, Nutsedge, Yellow) | pest or weed control at 62 g/ha ([10]; Cyperus, pre-emergence, Preemergence, 62 g ai/ha, scale 0 to 100, read-out: Plant response rating, Nutsedge, Yellow) | pest or weed control at 250 g/ha ([10]; Cyperus, pre-emergence, Preemergence, scale 0 to 100, read-out: Plant response rating, Nutsedge, Yellow)
30%: pest or weed control at 1000 g/ha [5, 11]
0: Plant response rating, Morningglory [4, 14] | Plant response rating, Velvetleaf [6, 14]
60: Plant response rating, Morningglory [4, 13] | Plant response rating, Velvetleaf [6, 13]
90%: pest or weed control at 1000 g/ha [3, 12] | plant injury at 1000 g/ha [7, 12] | pest or weed control at 62 g/ha ([8]; Alopecurus myosuroides, post-emergence, Postemergence, 62 g ai/ha, scale 0 to 100, read-out: Plant response rating, Blackgrass)
100: Blackgrass plant response rating ([8]; 250 g ai/ha, preemergence, 0-100 scale)
100%: pest or weed control at 1000 g/ha [1, 11] | pest or weed control at 1000 g/ha [1, 12] | Corn plant response rating (crop injury, 0 = no effect, 100 = complete kill) at 1000 g/ha (corn (Zea mays); [11]) | Corn plant response rating (crop injury, 0 = no effect, 100 = complete kill) at 1000 g/ha (corn (Zea mays); [12]) | pest or weed control at 1000 g/ha [2, 11] | pest or weed control at 1000 g/ha [2, 12] | pest or weed control at 1000 g/ha [3, 11] | plant injury at 1000 g/ha [7, 11] | pest or weed control at 125 g/ha ([8]; Alopecurus myosuroides, post-emergence, Postemergence, scale 0 to 100, read-out: Plant response rating, Blackgrass) | pest or weed control at 250 g/ha ([8]; Alopecurus myosuroides, post-emergence, Postemergence, 250 g ai/ha, scale 0 to 100, read-out: Plant response rating, Blackgrass) | pest or weed control at 31 g/ha ([8]; Alopecurus myosuroides, pre-emergence, Preemergence, 31 g ai/ha, 0 to 100 scale, 0 no effect, 100 complete control, read-out: Plant response rating, Blackgrass) | pest or weed control at 62 g/ha ([8]; Alopecurus myosuroides, pre-emergence, Preemergence, 62 g ai/ha, scale 0 to 100, read-out: Plant response rating, Blackgrass) | pest or weed control at 125 g/ha ([8]; Alopecurus myosuroides, pre-emergence, Preemergence, scale 0 to 100, read-out: Plant response rating, Blackgrass)
20%: pest or weed control at 1000 g/ha [5, 12] | pest or weed control at 31 g/ha ([8]; Alopecurus myosuroides, post-emergence, Postemergence, 31 g ai/ha, scale 0 to 100, 0 no effect, 100 complete control, read-out: Plant response rating, Blackgrass)

C#CCOC(=O)Oc1cnn(C)c(=O)c1-n1nc(-c2ccc(Cl)cc2)cc1C [Compound 58]
100: Plant response rating, Barnyardgrass [1, 18] | Plant response rating, Foxtail, Giant [2, 18] | Plant response rating, Blackgrass ([8]; Preemergence, 16 g ai/ha, scale 0 to 100 (0 no effect, 100 complete control)) | Plant response rating, Blackgrass [8, 19] | Plant response rating, Blackgrass [8, 20]
20: Plant response rating, Corn (corn (Zea mays); [18]) | Plant response rating, Foxtail, Giant [2, 15] | Plant response rating, Wheat [7, 17]
0: Plant response rating, Barnyardgrass [1, 15] | Plant response rating, Corn (corn (Zea mays); [15]) | Plant response rating, Corn (corn (Zea mays); [17]) | Plant response rating, Crabgrass, Large [3, 15] | Plant response rating, Morningglory [4, 15] | Plant response rating, Morningglory [4, 16] | Plant response rating, Morningglory [4, 17] | Plant response rating, Morningglory [4, 18] | Plant response rating, Pigweed [5, 15] | Plant response rating, Pigweed [5, 16] | Plant response rating, Pigweed [5, 17] | Plant response rating, Pigweed [5, 18] | Plant response rating, Velvetleaf [6, 15] | Plant response rating, Velvetleaf [6, 16] | Plant response rating, Velvetleaf [6, 17] | Plant response rating, Velvetleaf [6, 18] | Plant response rating, Wheat [7, 15] | Plant response rating, Galium ([9]; 31 g ai/ha, scale 0 to 100 (0 no effect, 100 complete control)) | Plant response rating, Galium ([9]; 62 g ai/ha, 0 to 100 scale, 0 no effect, 100 complete control) | Galium plant response rating ([9]; 8 g ai/ha, scale 0 to 100) | Galium plant response rating ([9]; 16 g ai/ha, scale 0 to 100) | Plant response rating, Nutsedge, Yellow [10, 19] | Plant response rating, Nutsedge, Yellow [10, 20] | Nutsedge, Yellow plant response rating [10, 21] | Nutsedge, Yellow plant response rating ([10]; Preemergence, 16 g ai/ha, scale 0 to 100)
80: Plant response rating, Barnyardgrass [1, 16] | Blackgrass plant response rating [8, 21]
70: Plant response rating, Crabgrass, Large [3, 16] | Plant response rating, Wheat [7, 18]
50: Plant response rating, Barnyardgrass [1, 17]
60: Plant response rating, Corn (corn (Zea mays); [16]) | Plant response rating, Crabgrass, Large [3, 17] | Plant response rating, Wheat [7, 16]
90: Plant response rating, Foxtail, Giant [2, 16] | Plant response rating, Foxtail, Giant [2, 17] | Plant response rating, Crabgrass, Large [3, 18]
